Earlier results, collected in publication PMC3249774 (Research in Pharmaceutical Sciences, 2011).

Test system: neuroblastoma cells
Conditions: cells treated with DFO

CC(=O)N(O)CCCCCNC(=O)CCC(=O)N(O)CCCCCNC(=O)CCC(=O)N(O)CCCCCN [DFO]
Sensitivity of neuroblastoma cells relative to normal bone marrow cells: 10 fold
